Data from ChEMBL document CHEMBL3045786, “Insect antifeedant activity of tetranortriterpenoids from the Rutales. A perusal of structural relations” (2002).

Assays:
Spodoptera litura [1] = assay: Antifeedant activity against larvae of Spodoptera litura in castor leaves relative to control; format: functional
Spodoptera litura [2] = assay: Feeding index against larvae of Spodoptera litura in castor leaves =

| SMILES | AFI (Spodoptera litura [1]) | PFI (Spodoptera litura [2]) |
| --- | --- | --- |
| COC(=O)C[C@H]1[C@]2(C)C3=C(C)[C@H](c4ccoc4)C[C@H]3O[C@@H]2[C@@H]2OC[C@]3(C)[C@H](O)C[C@H](OC(=O)C=C(C)C)[C@@]1(C)[C@@H]23 | 52.1% |  |
| CC(=O)O[C@@H]1C[C@H]2C(C)(C)CC(=O)C=C[C@]2(C)[C@H]2CC[C@]3(C)C(=CC[C@H]3c3ccoc3)[C@@]21C [HOMOAZADIRADIONE] |  | 60% |
| CC(=O)O[C@@H]1[C@H](O)[C@H]2C(C)(C)C(=O)CC[C@]2(C)[C@H]2CC[C@]3(C)C(=CC[C@H]3C3=CC(O)OC3=O)[C@]12C (some centres not stated) [ISOMELDENIN PP] |  | 28.3% |
| CC(=O)OC1[C@H](O)[C@H]2C(C)(C)C(=O)CC[C@]2(C)[C@H]2CC[C@]3(C)C(=CC[C@H]3c3ccoc3)[C@]12C (some centres not stated) [ISOMELDENIN] |  | 60.6% |
| COC1=C2C(C)(C)C(=O)[C@H]3O[C@H]3[C@]2(C)[C@H]2CC[C@@]3(C)[C@H](c4ccoc4)C[C@H]4O[C@]43[C@]2(C)C1=O [METHYL ETHER CEDRELONEEPOXIDE] |  | 54% |
| C=C1[C@@H]2CC[C@@]3(C)[C@H](c4ccoc4)OC(=O)C[C@]13O[C@H]1CC(=O)C(C)(C)[C@H](CC(=O)OC)[C@]12C [METHYLANGOLENSATE] |  | 65.3% |
| COC(=O)C[C@H]1[C@]2(C)C3=C(C)[C@H](C4=CCOC4=O)C[C@H]3O[C@@H]2[C@H](OC(C)=O)[C@@H]2[C@]1(C)C(=O)C=C[C@@]2(C)C(=O)OC [NIMBIN MW] |  | 42.9% |
| COC(=O)C[C@H]1[C@]2(C)C3=C(C)[C@H](C4=CC(=O)OC4O)C[C@H]3O[C@@H]2[C@H](OC(C)=O)[C@@H]2[C@]1(C)C(=O)C=C[C@@]2(C)C(=O)OC (some centres not stated) [NIMBIN PP] |  | 19.9% |
| COC(=O)C[C@H]1[C@]2(C)C3=C(C)[C@H](C4=CC(O)OC4=O)C[C@H]3O[C@@H]2[C@H](OC(C)=O)[C@@H]2[C@]1(C)C(=O)C=C[C@@]2(C)C(=O)OC (some centres not stated) [NIMBINOLIDE] |  | 26.7% |
| COC(=O)C[C@H]1[C@]2(C)C3=C(C)[C@H](c4ccoc4)C[C@H]3O[C@@H]2[C@H](OC(C)=O)[C@@H]2[C@]1(C)C(=O)C=C[C@@]2(C)C(=O)OC [NIMBIN] |  | 33.7% |
| COC(=O)C[C@H]1[C@]2(C)C3=C(C)[C@H](c4ccoc4)C[C@H]3O[C@@H]2[C@@H]2OC(=O)[C@]3(C)C=CC(=O)[C@@]1(C)[C@@H]23 [NIMBOLIDE] |  | 37% |
| CC(=O)O[C@@H]1[C@H](O)[C@H]2C(C)(C)C(=O)C=C[C@]2(C)[C@H]2CC[C@]3(C)C(=CC[C@H]3C3=CCOC3=O)[C@]12C [NIMONOL MW] |  | 44.2% |
| CC(=O)O[C@@H]1[C@H](O)[C@H]2C(C)(C)C(=O)C=C[C@]2(C)[C@H]2CC[C@@]3(C)[C@H](C45CC(O)OC4O5)C[C@@H]4O[C@@]43[C@]12C (some centres not stated) [NIMONOL PP2] |  | 15.8% |
| CC(=O)O[C@@H]1[C@H](O)[C@H]2C(C)(C)C(=O)C=C[C@]2(C)[C@H]2CC[C@@]3(C)[C@H](C4=CC(O)OC4=O)C[C@@H]4O[C@@]43[C@]12C (some centres not stated) [NIMONOLIDE] |  | 21.3% |
| CC(=O)O[C@@H]1[C@H](O)[C@H]2C(C)(C)C(=O)C=C[C@]2(C)[C@H]2CC[C@]3(C)C(=CC[C@H]3c3ccoc3)[C@]12C [NIMONOL] |  | 47.3% |
| C/C=C(\C)C(=O)O[C@H]1C[C@@H](OC(C)=O)[C@@]2(C)CO[C@H]3[C@H]4O[C@@H]5CC(C6=CC(=O)OC6O)=C(C)C5[C@@]4(C)[C@H](CC(=O)OC)[C@]1(C)[C@@H]32 (some centres not stated) [SALANNIN PP1] |  | 29.1% |
| C/C=C(\C)C(=O)O[C@H]1C[C@@H](OC(C)=O)[C@@]2(C)CO[C@H]3[C@H]4O[C@@H]5C[C@@H](C6=CC(=O)OC6O)C(C)=C5[C@@]4(C)[C@H](CC(=O)OC)[C@]1(C)[C@@H]32 (some centres not stated) [SALANNIN PP] |  | 25.1% |
| C/C=C(/C)C(=O)O[C@H]1C[C@@H](OC(C)=O)[C@@]2(C)CO[C@H]3[C@H]4O[C@@H]5C[C@@H](c6ccoc6)C(C)=C5[C@@]4(C)[C@H](CC(=O)OC)[C@]1(C)[C@@H]32 [SALANNIN] |  | 36.3% |
| C/C=C(\C)C(=O)O[C@H]1C[C@@H](OC(C)=O)[C@@]2(C)CO[C@H]3[C@H]4O[C@@H]5C[C@@H](C6=CCOC6=O)C(C)=C5[C@@]4(C)[C@H](CC(=O)OC)[C@]1(C)[C@@H]32 [SALANNOBUTYROLACTONE] |  | 46.3% |
| C/C=C(\C)C(=O)O[C@H]1C[C@@H](OC(C)=O)[C@@]2(C)CO[C@H]3[C@H]4O[C@@H]5C[C@@H](C6=CC(O)OC6=O)C(C)=C5[C@@]4(C)[C@H](CC(=O)OC)[C@]1(C)[C@@H]32 (some centres not stated) [SALANNOLIDE] |  | 26.3% |
| C/C=C(\C)C(=O)O[C@@H]1[C@@H]2C=C3[C@@H]4CC(=O)O[C@@H](C5=CC(O)OC5=O)[C@]4(C)CC[C@@H]3[C@@](C)(C2=O)[C@@H]([C@@H](O)C(=O)OC)C1(C)C (some centres not stated) [SWIETENINE PP] |  | 40.2% |
| C/C=C(\C)C(=O)O[C@@H]1[C@@H]2C=C3[C@@H]4CC(=O)O[C@@H](c5ccoc5)[C@]4(C)CC[C@@H]3[C@@](C)(C2=O)[C@@H]([C@@H](O)C(=O)OC)C1(C)C [SWIETENINE] |  | 49.1% |
